Structures can show the parent of a compound that is named as a salt.
Target: T1, α2δ-subunit of a calcium channel (Sus scrofa, UniProt A0A287BIN3)
T1 construct: the α2δ-subunit derived from porcine brain tissue was used; from tissue; host or cells: porcine brain tissue
Assay: radioligand binding assay using [3H]-gabapentin
Details: α2δ-subunit derived from porcine brain tissue
Excerpt: The ability of compounds of the present invention to bind to the α2δ-subunit of a calcium channel can be determined using the following binding assay.
The radioligand binding assay using [^3H]-gabapentin and the α2δ-subunit derived from porcine brain tissue was used (See, Gee, Nicolas S et al. “The novel anticonvulsant drug, gabapentin (Neurontin), binds to the α2δ subunit of a calcium channel”. J. Biol. Chem. (1996), 271 (10), 5768–76). Compounds of the invention bind with nanomolar to micromolar affinity for the α2δ protein.

T1 sequence (A0A287BIN3 25-1109): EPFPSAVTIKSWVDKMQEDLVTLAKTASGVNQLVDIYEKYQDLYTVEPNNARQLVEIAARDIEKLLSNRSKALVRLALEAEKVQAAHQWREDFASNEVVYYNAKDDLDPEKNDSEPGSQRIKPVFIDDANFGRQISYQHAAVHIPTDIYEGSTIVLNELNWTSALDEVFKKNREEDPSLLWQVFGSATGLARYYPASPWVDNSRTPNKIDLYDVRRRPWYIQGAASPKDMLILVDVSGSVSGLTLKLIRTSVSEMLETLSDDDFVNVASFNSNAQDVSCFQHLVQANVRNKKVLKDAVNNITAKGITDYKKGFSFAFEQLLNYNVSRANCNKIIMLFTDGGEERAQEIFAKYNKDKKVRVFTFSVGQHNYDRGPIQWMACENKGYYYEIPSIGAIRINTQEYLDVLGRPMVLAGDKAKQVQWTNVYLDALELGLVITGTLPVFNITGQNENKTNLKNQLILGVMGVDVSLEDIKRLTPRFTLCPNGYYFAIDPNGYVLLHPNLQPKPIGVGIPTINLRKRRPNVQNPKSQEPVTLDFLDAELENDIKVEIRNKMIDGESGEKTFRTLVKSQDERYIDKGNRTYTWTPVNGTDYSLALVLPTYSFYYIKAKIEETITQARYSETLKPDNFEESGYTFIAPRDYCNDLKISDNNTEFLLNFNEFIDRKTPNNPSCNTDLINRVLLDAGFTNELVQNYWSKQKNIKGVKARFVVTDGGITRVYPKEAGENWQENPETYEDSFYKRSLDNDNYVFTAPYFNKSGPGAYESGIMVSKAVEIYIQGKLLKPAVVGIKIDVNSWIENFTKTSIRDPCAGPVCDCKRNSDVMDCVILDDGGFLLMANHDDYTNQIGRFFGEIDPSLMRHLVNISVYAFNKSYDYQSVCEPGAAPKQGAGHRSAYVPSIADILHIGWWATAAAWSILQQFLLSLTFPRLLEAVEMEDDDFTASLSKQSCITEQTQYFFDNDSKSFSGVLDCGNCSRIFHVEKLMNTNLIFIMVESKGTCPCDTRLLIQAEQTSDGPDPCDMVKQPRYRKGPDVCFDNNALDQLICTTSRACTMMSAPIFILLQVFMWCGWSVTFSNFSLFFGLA

SMILES	affinity to the α2δ protein [nM]
CC(C)CCCC(C)C[C@@H](N)CC(=O)O (stereo partly drawn) [R-3-amino-5,9-dimethyl-decanoic acid]	527
CCC[C@@H](C)C[C@H](CN)C(=O)O [(2R,4R)-2-Aminomethyl-4-methyl-heptanoic Acid]	29
CCCC(C)(C)CC(CN)C(=O)O.Cl (stereo not drawn) [2-Aminomethyl-4,4-dimethyl-heptanoic Acid Hydrochloride]	83
CCC[C@H](C)C[C@H](N)CC(=O)O [(3S,5S)-3-amino-5-methyl-octanoic acid]	1000

Test system: not given
Assay: not given
Details: not given

SMILES	melting point [°C]
CCC[C@@H](C)C[C@H](CN)C(=O)O (as salt: hydrochloride) [(2R,4R)-2-Aminomethyl-4-methyl-heptanoic Acid]	226.3 to 228
CCCC(C)(C)CC(CN)C(=O)O.Cl (stereo not drawn) [2-Aminomethyl-4,4-dimethyl-heptanoic Acid Hydrochloride]	229.5 to 231

The remaining lines, values ahead:

melting point [°C]	SMILES
142.5 to 143.3	CCCC[C@@H](C)C[C@H](N)CC(=O)O (as salt: hydrochloride)
142.5 to 142.7	CCC[C@@H](C)C[C@H](N)CC(=O)O.Cl
194.2 to 195.2	CCCC(C)(C)C[C@H](N)CC(=O)O (as salt: hydrochloride)

— patent publication US7112610B2, “Methods for using amino acids with affinity for the α2δ-protein” (Warner-Lambert Company LLC, priority 2003, dated 2006)
